Where two headings read alike, the source gives them in different places. One block for each compound: values may come before it.
Key:
Muscarinic M1 = Muscarinic M1 (Homo sapiens, UniProt P11229); experiment: CEREP binding profile: M1
Description: (§1) The CEREP High-throughput profile consists of a broad collection of 80 transmembrane and soluble receptors, ion channels and G-Protein coupled receptors.

Muscarinic M2 = Muscarinic M2 (Homo sapiens, UniProt P08172); experiment: CEREP binding profile: M2
Description: as §1

[1] = biological target: T1, Vasoactive intestinal peptide PAC1-PACAP (Homo sapiens, UniProt P41586); experiment: CEREP binding profile: PAC1
T1 construct: CEREP (contract panel)
Description: as §1

Bombesin BB = experiment: CEREP binding profile: BB; conditions: 10 μM
Description: as §1

Transporters Dopamine = biological target: T2, Transporters Dopamine (Homo sapiens, UniProt Q01959); experiment: CEREP binding profile: dopamine transporter
T2 construct: CEREP (contract panel)
Description: as §1

Dopamine D1 = biological target: T3, Dopamine D1 (Homo sapiens, UniProt P21728); experiment: CEREP binding profile: D1
T3 construct: CEREP
Description: as §1

Chemokines CXCR2 = biological target: T4, Chemokines CXCR2 (Homo sapiens, UniProt P25025); experiment: CEREP binding profile: CXCR2
T4 construct: CEREP
Description: as §1

Serotonin 5-HT2A = biological target: T5, Serotonin 5-HT2A (Homo sapiens, UniProt P28223); experiment: CEREP binding profile: 5-HT2A
T5 construct: CEREP (contract panel)
Description: as §1

[2] = biological target: T6, Calcitonin gene-related CGRP (Homo sapiens, UniProt O60894+Q16602); experiment: CEREP binding profile: CGRP
T6 construct: CEREP
Description: as §1

[3] = biological target: T7, mutant human CB1 receptor (hCB1p.E1.49G) (Homo sapiens, UniProt P21554, E133G); experiment: THC-induced inhibition of cellular respiration in HEK-293-hCB1-Mut; format: cell-based; conditions: 100 nM, THC 1 μM
T7 construct: expressed in transfected cells; host or cells: HEK-293 (transient)
Procedure: In a second study (FIG. 5B), HEK-293 cells were transiently transfected either with the wild-type hCB1-expressing plasmid (HEK-293-hCB1-WT) or with the mutant hCB1p.E1.49G-expressing plasmid (HEK-293-hCB1-Mut). In this mutant the glutamate amino acid at position 1.49 was substituted by a glycine. […] After 15 min of incubation, THC (0; 1 μM, dissolved in EtOH, 0.0034%) was added in the culture dishes for 30 minutes.
(§2) Cellular respiration was measured in a calibrated oxygraph equipped with a Clark electrode. Oxygen consumption (OC) rate was used to measure cellular respiration.

[4] = Depressive-like behaviors in the sucrose preference test; format: in vivo, mouse
Procedure: Sucrose preference was tested in the home cages of the mice. A sucrose solution containing 2% of sucrose (D(+) saccharose) in tap water was poured in plastic graduated bottles (volume in each bottle, 45 ml). Identical bottles were filled with tap water. All the mice were first habituated to the bottles and to the sucrose solution. One bottle containing water and one bottle containing sucrose were placed in the hopper of each home cage. […] The mice had access to the solutions from the beginning of the dark phase, at the daily peak of food and water consumption (from 7 pm to 8.30 am). The sucrose preference test was performed seven days later. Water and sucrose solutions were presented as described for habituation except that mice had access to the solutions from 12 pm to 10 pm. At each time point, the bottles were weighed, 1 g corresponding to 1 ml. The intake volume was calculated by subtracting the initial bottle weight to the final bottle weight.
15 or 30 mg/kg or of vehicle (corn oil; 5 ml/kg) was studied in the sucrose preference test in 2-month-old male C57B1/6J mice (n=7-8 per group). Rimonabant was dissolved in a vehicle containing dimethylsulfoxide (DMSO, 2%), Tween80 (2%) in injectable NaCl 0.9%. Within the same study, the effect of repeated intraperitoneal injections of rimonabant at 10 mg/kg or of vehicle alone (10 ml/kg) was studied in the sucrose preference test in 2-month-old male C57B1/6J mice (n=8 per group).

[5] = biological target: T8, wild-type human CB1 receptor (Homo sapiens, UniProt P21554); experiment: THC-induced inhibition of cellular respiration in HEK-293-hCB1-WT; format: cell-based; conditions: THC 1 μM
T8 construct: expressed in transfected cells; host or cells: HEK-293 (transient)
Procedure: In a first study (FIG. 5A), HEK-293 cells were transiently transfected with the wild-type hCB1-expressing plasmid (HEK-293-hCB1-WT). […] After 15 min of incubation, THC (0; 1 μM, dissolved in EtOH, 0.0034%) was added in the culture dishes for 30 minutes.
as §2

[6] = tested on: primary culture of rat hepatocytes; experiment: Hepatotoxicity in primary culture of hepatocytes; format: cell-based; conditions: 0.1 to 100 μM; 48 hours
Procedure: The percentage of cytolysed hepatocytes over time was determined by time lapse imaging with a fluorescent cytolysis marker. The number of bile canaliculi after 48 hours of treatment was determined using a fluorescent bile salt analog.
Primary rat hepatocytes from 10-12 weeks old Wistar rats were isolated using a two-step collagenase perfusion method. After 24 hours, cells were covered with a layer of Matrigel to perform a sandwich configuration culture. […] Cells were then stained using a fluorescent bile salt analog to measure the bile canaliculi network state and the Bsep pump activity. Acetaminophen (30 mM) and Cyclosporin A (1 μM) were added as positive controls of hepatotoxicity and biliary canaliculi loss, respectively.

[7] = Anxiety-like behaviors in the elevated plus maze; format: in vivo, mouse
Description: The EPM apparatus was made of grey polyvinyl chloride and consisted of four elevated arms. The arms (height, 60 cm; length, 37 cm; width, 6 cm; each) were arranged in a cross-like disposition, with two opposite arms being enclosed by walls and the two other arms being open. A video camera placed on the top of the maze and connected to a tracking system allowed the automatic scoring of the locomotion of the mice in the maze. The light intensity of the maze was set at 45 lux in the open arms. One mouse was placed in the center of the EPM and was then free to explore the entire maze for 5 minutes. The time spent and the number of entries into the open arms and closed arms were measured. A decrease in the percentages of visits and/or of the time spent in open arms reflects an increase in anxiety levels.
Rimonabant was dissolved in a vehicle containing DMSO, (2%), Tween80 (2%) in injectable NaCl 0.9%. Within the same study, the effect of intraperitoneal injection of rimonabant at 10 mg/kg or of vehicle alone (10 ml/kg) was studied in the EPM in 2-month-old male C57B1/6J mice (n=10 per group). The EPM test was performed 30 minutes after rimonabant injection.

85 receptors = experiment: CEREP High-throughput binding profile (85 receptors), whole panel
Description: as §1

in vivo = conditions: Ts65Dn and WT, mouse
Description: At the end of the behavioral study, mice were sacrificed, blood and brain samples were collected.

[8] = male mice, highest dose tested 30 mg/kg

T8 sequence (P21554 whole entry): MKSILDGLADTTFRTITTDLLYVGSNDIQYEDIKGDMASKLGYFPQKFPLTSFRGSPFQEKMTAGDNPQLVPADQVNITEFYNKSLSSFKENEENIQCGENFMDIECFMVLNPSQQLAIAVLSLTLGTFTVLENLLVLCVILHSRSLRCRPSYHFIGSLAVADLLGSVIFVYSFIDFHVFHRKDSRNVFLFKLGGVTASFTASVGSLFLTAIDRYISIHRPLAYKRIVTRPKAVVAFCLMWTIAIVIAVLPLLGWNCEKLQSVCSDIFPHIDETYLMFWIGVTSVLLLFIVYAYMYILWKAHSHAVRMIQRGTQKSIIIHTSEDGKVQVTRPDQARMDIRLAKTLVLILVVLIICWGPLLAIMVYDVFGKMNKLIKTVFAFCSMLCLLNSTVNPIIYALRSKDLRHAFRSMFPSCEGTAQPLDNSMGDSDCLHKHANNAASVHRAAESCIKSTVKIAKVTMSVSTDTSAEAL
T4 sequence (P25025 whole entry): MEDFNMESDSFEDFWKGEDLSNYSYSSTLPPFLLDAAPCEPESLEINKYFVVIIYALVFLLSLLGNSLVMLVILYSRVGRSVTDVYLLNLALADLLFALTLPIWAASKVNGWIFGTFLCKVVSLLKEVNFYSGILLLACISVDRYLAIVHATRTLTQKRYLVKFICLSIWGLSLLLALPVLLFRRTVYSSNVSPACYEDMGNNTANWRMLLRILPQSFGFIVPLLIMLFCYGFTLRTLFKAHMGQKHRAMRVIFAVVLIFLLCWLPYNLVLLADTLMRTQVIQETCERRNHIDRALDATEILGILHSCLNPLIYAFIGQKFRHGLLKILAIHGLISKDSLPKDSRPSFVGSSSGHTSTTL
T5 sequence (P28223 whole entry): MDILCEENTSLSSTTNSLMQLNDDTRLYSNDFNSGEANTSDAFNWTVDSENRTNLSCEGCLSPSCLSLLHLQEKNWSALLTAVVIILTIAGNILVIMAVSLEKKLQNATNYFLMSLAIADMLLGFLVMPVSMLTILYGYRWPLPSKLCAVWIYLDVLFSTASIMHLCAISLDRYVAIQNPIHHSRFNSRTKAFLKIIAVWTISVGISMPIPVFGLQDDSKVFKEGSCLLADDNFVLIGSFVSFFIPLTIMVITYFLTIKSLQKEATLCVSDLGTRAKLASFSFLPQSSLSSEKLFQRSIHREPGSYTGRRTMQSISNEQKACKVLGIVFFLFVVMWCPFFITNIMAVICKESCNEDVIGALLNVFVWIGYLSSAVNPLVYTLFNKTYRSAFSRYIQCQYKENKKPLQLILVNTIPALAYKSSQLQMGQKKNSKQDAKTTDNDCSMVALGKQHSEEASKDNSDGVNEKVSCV
Muscarinic M2, sequence (P08172 whole entry): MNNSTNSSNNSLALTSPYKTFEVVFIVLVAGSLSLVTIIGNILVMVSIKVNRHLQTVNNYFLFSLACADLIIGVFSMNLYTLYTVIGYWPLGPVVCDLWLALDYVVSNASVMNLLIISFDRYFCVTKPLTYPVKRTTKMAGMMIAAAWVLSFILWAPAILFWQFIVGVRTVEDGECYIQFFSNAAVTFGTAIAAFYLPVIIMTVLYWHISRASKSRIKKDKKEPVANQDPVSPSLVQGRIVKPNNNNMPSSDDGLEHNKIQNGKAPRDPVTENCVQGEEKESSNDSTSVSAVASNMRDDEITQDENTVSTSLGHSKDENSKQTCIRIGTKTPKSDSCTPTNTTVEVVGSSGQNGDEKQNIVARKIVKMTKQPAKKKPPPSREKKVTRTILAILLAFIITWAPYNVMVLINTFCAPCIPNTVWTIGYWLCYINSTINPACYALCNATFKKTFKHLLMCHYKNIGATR
T6 sequence (Q16602 23-461): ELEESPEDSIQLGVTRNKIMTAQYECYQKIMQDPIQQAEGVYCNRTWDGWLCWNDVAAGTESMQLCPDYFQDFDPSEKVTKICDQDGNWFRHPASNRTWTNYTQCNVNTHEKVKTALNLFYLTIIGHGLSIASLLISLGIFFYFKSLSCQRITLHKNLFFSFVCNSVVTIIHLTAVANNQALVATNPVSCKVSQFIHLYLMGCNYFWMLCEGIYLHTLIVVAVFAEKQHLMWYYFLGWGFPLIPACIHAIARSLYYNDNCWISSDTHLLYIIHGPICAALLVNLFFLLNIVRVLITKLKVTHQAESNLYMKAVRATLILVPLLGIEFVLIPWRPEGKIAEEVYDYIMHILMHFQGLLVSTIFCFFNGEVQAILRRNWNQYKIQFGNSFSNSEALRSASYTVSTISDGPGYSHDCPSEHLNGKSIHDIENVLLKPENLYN
T6 sequence (O60894 27-148 partner): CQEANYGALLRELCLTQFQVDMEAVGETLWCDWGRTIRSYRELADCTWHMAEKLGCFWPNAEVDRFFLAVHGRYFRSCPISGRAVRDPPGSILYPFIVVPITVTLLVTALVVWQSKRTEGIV
Muscarinic M1, sequence (P11229 whole entry): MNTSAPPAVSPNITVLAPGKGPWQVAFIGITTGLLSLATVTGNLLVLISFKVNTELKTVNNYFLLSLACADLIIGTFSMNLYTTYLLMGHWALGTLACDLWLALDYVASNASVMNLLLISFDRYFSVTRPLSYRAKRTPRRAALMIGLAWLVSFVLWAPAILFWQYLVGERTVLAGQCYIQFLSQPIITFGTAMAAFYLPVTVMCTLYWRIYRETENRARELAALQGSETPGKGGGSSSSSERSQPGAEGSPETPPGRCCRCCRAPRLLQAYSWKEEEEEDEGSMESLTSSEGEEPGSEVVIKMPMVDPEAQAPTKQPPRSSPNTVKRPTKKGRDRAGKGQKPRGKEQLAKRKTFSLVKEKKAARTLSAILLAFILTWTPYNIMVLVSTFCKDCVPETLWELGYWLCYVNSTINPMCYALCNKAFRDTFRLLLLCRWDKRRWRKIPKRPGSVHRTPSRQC
T3 sequence (P21728 whole entry): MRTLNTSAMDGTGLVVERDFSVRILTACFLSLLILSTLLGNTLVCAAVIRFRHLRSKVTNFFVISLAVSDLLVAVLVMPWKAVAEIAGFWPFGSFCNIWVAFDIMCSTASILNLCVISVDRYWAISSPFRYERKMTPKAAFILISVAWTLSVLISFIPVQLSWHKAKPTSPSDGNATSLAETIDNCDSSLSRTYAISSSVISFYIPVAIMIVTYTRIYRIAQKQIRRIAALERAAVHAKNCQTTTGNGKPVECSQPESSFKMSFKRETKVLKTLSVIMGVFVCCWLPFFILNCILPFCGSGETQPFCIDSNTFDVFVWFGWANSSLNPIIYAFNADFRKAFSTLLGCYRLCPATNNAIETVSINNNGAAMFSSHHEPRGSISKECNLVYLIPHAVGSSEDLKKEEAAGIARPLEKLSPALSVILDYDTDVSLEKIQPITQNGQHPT
T2 sequence (Q01959 whole entry): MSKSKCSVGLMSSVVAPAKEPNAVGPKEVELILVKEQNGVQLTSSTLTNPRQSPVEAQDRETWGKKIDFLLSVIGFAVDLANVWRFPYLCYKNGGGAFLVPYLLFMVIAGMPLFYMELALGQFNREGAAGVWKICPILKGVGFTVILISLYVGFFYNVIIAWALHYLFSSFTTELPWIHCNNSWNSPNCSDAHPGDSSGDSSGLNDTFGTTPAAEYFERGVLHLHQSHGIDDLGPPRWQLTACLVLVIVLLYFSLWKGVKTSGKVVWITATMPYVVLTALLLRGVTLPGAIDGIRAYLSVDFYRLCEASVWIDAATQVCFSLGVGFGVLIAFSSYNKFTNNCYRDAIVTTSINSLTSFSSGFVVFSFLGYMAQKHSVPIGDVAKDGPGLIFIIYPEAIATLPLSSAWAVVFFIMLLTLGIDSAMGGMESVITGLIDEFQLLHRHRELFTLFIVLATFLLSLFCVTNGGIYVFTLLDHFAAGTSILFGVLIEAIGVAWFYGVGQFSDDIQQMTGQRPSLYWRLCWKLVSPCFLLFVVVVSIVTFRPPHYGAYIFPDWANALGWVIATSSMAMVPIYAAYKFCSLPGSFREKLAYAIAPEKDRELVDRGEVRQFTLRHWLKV
T1 sequence (P41586 21-468): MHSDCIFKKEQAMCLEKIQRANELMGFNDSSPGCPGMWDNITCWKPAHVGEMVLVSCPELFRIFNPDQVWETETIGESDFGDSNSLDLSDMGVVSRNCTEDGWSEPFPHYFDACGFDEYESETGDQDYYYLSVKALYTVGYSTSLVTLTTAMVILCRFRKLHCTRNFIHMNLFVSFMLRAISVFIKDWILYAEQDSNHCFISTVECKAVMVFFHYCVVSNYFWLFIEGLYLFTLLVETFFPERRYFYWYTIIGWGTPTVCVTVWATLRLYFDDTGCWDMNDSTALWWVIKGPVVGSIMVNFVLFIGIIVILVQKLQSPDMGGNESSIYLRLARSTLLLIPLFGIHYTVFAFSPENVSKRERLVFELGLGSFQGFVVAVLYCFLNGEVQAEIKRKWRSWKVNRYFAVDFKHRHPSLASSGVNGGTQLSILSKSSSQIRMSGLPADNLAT
T7 sequence (P21554 whole entry E133G): as the sequence (P21554 whole entry) above, with E133G counted along it

inhibition at 10 µM (Muscarinic M1; M1, 10 μM, read-out: % Inhibition): -14% | inhibition at 10 µM (Muscarinic M2; M2, 10 μM, read-out: % Inhibition): -4% | inhibition at 10 µM [1]: -25% | % Inhibition (Bombesin BB): −18% | inhibition at 10 µM (Transporters Dopamine; dopamine transporter, 10 μM, read-out: % Inhibition): -12% | inhibition at 10 µM (Dopamine D1): -8% | inhibition at 10 µM (Chemokines CXCR2): -10% | inhibition at 10 µM (Serotonin 5-HT2A; 5-HT2A, 10 μM, read-out: % Inhibition): -1% | inhibition at 10 µM [2]: -12%
Structure (SMILES): CC(=O)[C@H]1CC[C@H]2[C@@H]3CC=C4C[C@@H](O)CC[C@]4(C)[C@H]3CC[C@]12C [pregnenolone, reference compound]

Structure (SMILES): CC(=O)[C@@]1(C)CC[C@H]2[C@@H]3CC=C4C[C@@H](OCc5ccccc5)CC[C@]4(C)[C@H]3CC[C@@]21C [3Bn17MeP, 3β-benzyloxy, 17α-methyl-pregn-5-en-20-one]
inhibition at 10 µM (Muscarinic M1): -25% | Effect on THC-induced decrease in cellular respiration [3]: insensitive | Sucrose intake ([4]; 0.05, 5, 15, 30 mg/kg per os once a day, 28 days): had no effect on sucrose intake | Effect: increase in depression-related behaviors (repeated administration) [4, 8]: No | inhibition at 10 µM (Muscarinic M2): -17% | ID100 ([5]; HEK-293-hCB1): 50 nM | % Inhibition ([5]; HEK-293-hCB1, maximal inhibition of THC effect): 100% | Concentration with significant block of THC-induced inhibition of cellular respiration ([5]; tested 1, 2.5, 5, 50 and 100 nM, Tukey's test): ≥ 2.5 nM | % Inhibition (Bombesin BB): −6% | inhibition at 10 µM (Transporters Dopamine): -23% | % Inhibition (Dopamine D1; 10 μM): −10% | inhibition at 10 µM (Chemokines CXCR2): 0% | Hepatotoxic effect (hepatocyte survival) [6]: no hepatotoxic effect | Percentage of time spent and of visits in the open arms ([7]; acute 30 mg/kg per os, 3 hours after administration): had no effect | Effect: increase in anxiety-like behaviors (acute administration) [7, 8]: No | Modification of the binding of the 85 receptors (85 receptors; 10 μM): does not modify the binding of any of the 85 receptors | IC50 (85 receptors; CEREP High-throughput binding profile (85 receptors), read-out: ID50 (the source's name)): > 10 µM | inhibition at 10 µM (Serotonin 5-HT2A): -8% | inhibition at 10 µM [2]: -15% | concentration at 1 month (in vivo): 1.3 ng/mL

— patent US12583884B2, “3beta-(benzyloxy)-17alpha-methyl-pregn-5-en-20-one for use in the treatment of cognitive disorders” (AELIS FARMA, priority 2018, dated 2026)
